According to a melting point compilation (Tetko et al.; mined from patent text by program, amines drawn as free bases though some values may be those of a salt):

SMILES	melting point [°C]
CCc1cnc(C2=NC(C)(C(C)C)C(=O)N2)c(C(=O)NCCCC(=O)O)c1 (stereo unspecified)	165 to 167
Nc1nc(-c2ccncc2)nc(N)c1N	230 to 232
COCCOc1ccc2c(=O)c(C#N)c[nH]c2c1	> 250
Cc1cn(-c2cccc(OS(N)(=O)=O)c2)cn1	202 to 204
COC(=O)C1=C(c2ccc3c(c2)OCO3)c2ccc(OCc3ccccc3)cc2C1=O	140 to 141
NC(=O)c1cc(OCCCCNCc2ccccc2)ccc1O	78 to 81
COc1cc(OC)c(-c2nc(NC(=O)c3cc4ccccc4[nH]3)sc2C)cc1Cl	249
Cc1cccc(NC(=O)C2=C(O)c3ccc4ccccc4c3S(=O)(=O)N2C)c1	240 to 242
O=C(c1ccccc1)c1noc(CS(=O)c2ccccc2)n1 (stereo unspecified)	79 to 81
COc1ccc(N)cc1Oc1ncc(Cl)cc1Cl	95 to 105
CCCCNCc1ccc2cc(OC)ccc2c1	55 to 80
Fc1cc2c(cc1F)CC(n1cc[nH]c1=S)C2	255 to 257
CCCCCCCCc1cccc(N2CC(=O)NC(=O)N2)c1	169 to 171
COc1ccc(-c2ccc(C=O)c(Cl)c2)cc1F	116 to 118
COc1cc(Nc2nccc(-c3cccc(OCCO)c3)n2)cc(OC)c1OC	70
O=C(N[C@@H](Cc1c[nH]c2ccccc12)C(=O)O)c1ccc(Br)cc1	162 to 163
O=C(O)c1cc(NS(=O)(=O)c2ccc([N+](=O)[O-])cc2)ccc1O	239 to 240
CN1C(=O)C(c2ccc(OC(F)F)cc2)(c2cccc(C#CCCO)c2)N=C1N (stereo unspecified)	90 to 93
COc1ccc(-c2ccc3c(c2)c2ccc(C=Cc4ccccc4)nc2n3S(=O)(=O)c2ccccc2)cc1	193 to 195
COc1ccc(C(=O)Nc2ccc3ccc(OCCN(C)C)nc3n2)cc1	77 to 80
Cc1n[nH]c2cc(-c3nn(Cc4oc5ccccc5c(=O)c4-c4cccc(F)c4)c4ncnc(N)c34)ccc12	246 to 248

SMILES	melting point [°C]
C#CCCn1nnc2cc3c(=O)n(C(C)Cn4cnnn4)nnc3cc2c1=O (stereo unspecified)	201 to 204
CCCCCCCNC(=O)Nc1ccc(OC)cc1NC(=O)c1cc(C(C)(C)C)c(O)c(C(C)(C)C)c1	150 to 151
CCCn1nc(-c2ccc(OC)cc2)c2cccc(-c3ccc(F)cc3)c21	110 to 111
CCCCCCCCCCCCS(=O)(=O)Nc1cc(C(=O)Nc2ccccc2)ccc1OC	156 to 157
CC(Oc1ccc([N+](=O)[O-])cc1F)c1c(Cl)ccc(F)c1Cl (stereo unspecified)	110
COc1cc(Oc2cccc(C(F)(F)F)c2)nc(C(=O)NN=CCC#N)c1	98 to 100
C#CCOc1cc(C(=O)O)cc([N+](=O)[O-])c1C(=O)c1ccccc1	169 to 172
COC(=O)c1cc(Cl)cc(N)c1O	65 to 67
CC(O)CN(CCc1ccc(Nc2ncc3c(n2)-c2ccccc2C(c2cccc(Br)c2)C3)cc1)Cc1ccccc1 (stereo unspecified)	90 to 92
Cc1nc(-c2cc(N)c(=O)[nH]c2C)cs1	192 to 194
CCn1c(=O)c2[nH]c(/C=C/c3ccc4c(c3)OCO4)nc2n(CC)c1=O	> 275
CC(C)C(NC(=O)CCc1ccccn1)C(=O)NC(Cc1ccccc1)C(O)C(Cc1ccccc1)NC(=O)C(NC(=O)CCc1ccccn1)C(C)C (stereo unspecified)	216 to 218
Cc1nn(CCOc2ccc(C=C3SC(=O)NC3=O)cc2)c(=O)c2ccccc12	202
Cc1cccc(S(=O)(=O)Cc2c(C(F)(F)F)n[nH]c2O)c1	130 to 133
O=[N+]([O-])c1ccc(-n2ccnn2)c(F)c1	123 to 124
N=C(NO)c1ccc2[nH]cc(CCN3C(=O)c4ccccc4C3=O)c2c1	168 to 170
Brc1cccc2c1ccc1ccccc12	90 to 91
CCOC(=O)c1cn(CC)c2cc(N3CCNCC3)c(F)cc2c1=O	178 to 180
O=[N+]([O-])c1cccc(-c2cccc([N+](=O)[O-])n2)n1	206 to 207
NC(=O)C(OC(=O)c1ccccc1Cl)(C(N)=O)c1ccc(Cl)c(Cl)c1	220
O=c1[nH][nH]c(=O)c2c(O)c3ccc(C(F)(F)F)cc3nc12	170 to 172

SMILES	melting point [°C]
Oc1ccc(-c2ccc(C=C(Br)Br)s2)cc1	99 to 101
COc1ccc(CC2C(=O)N(Cc3ccccc3)c3ccccc3NC2C)cc1 (stereo unspecified)	136 to 137
O=C(CCCCCOc1ccc([N+](=O)[O-])cc1)OCCOCCOC(=O)CCCCCOc1ccc([N+](=O)[O-])cc1	60 to 62
Nc1c(-c2ccc(-c3ccc(F)cc3)c(F)c2)nc2ccc(F)cc2c1C(=O)O	245 to 247
NS(=O)(=O)c1ccc(-n2nc(C(F)F)cc2-c2nc3ccc(F)cc3s2)cc1	255
COC(=O)c1ncsc1CCNC(=O)OCc1ccccc1	108 to 110
COc1ccc2c(c1)c(Cc1nc(-c3ccc4ccccc4c3)cs1)c(C)n2C(=O)c1ccc(Cl)cc1	131 to 133
CC(C)[C@@H](NC(=O)OCc1ccccc1)C(=O)C=[N+]=[N-]	68 to 69
NS(=O)(=O)c1cc(C(=O)O)cc([N+](=O)[O-])c1Nc1ccc(Cl)cc1	241 to 243
Cc1nc(Cn2cnc3c2c(=O)n(C)c(=O)n3C)no1	135
COc1cc(OC)nc(Oc2ccc3[nH]c(C)c(NC(C)=O)c3c2C(=O)O)n1	230 to 233
Nc1c(Cl)cc(C(=O)Cl)cc1C(F)(F)F	110 to 115
CCC(=O)NCCCSc1ccncc1	50 to 51
Cn1cc(-c2cccc(Cl)c2)c(=S)c(-c2cccc(Cl)c2)c1	210 to 212
O=C(Cc1ccccc1)NCC(O)c1ccccc1 (stereo unspecified)	97 to 99
CCCCCCCCOc1cc2cc(C(=O)OC)c(C(=O)OC)c(-c3ccnc(Cl)c3)c2cc1OC	93 to 97
COc1cccc(Sc2c(C)n(CC(=O)O)c3ccc(NS(C)(=O)=O)cc23)c1	292
CC(C)(C)C(=O)Nc1ccc(C(F)(F)F)cc1C=O	69 to 73
Cn1nc(Cc2ccc([N+](=O)[O-])cc2)oc1=O	115 to 116

Second part, the compound after the results:

melting point [°C]	SMILES
132 to 134	COc1ccc(CNc2nc(N3CCn4ccnc4C3)ncc2C(=O)NCC2CN(C)CCO2)cc1Cl (stereo unspecified)
70	O=NN(CCCl)C(=O)NCc1ccccn1
144 to 146	NC1CN(C(=O)Nc2ccc(C(F)(F)F)cc2)N=C1c1ccc(Cl)cc1 (stereo unspecified)
145	CCOC(=O)C1=C(C)NC(N=CN2CCCCC2)=C(C(=O)OCC)C1c1ccccc1Cl (stereo unspecified)
245 to 247	O=C(O)CCc1ccc(C(=O)CN2CCN(c3ccncc3)CC2)cc1
149	COC[C@](C#N)(C(=O)N1CCN(c2cnccn2)CC1)[C@H](c1ccccc1OC)c1cccc2ccccc12
81 to 82	COc1ccc(/C=N/N2CCCCC2)cc1OC1CCCC1
164	CC(=O)Nc1ccc([N+](=O)[O-])cc1OCC1CO1 (stereo unspecified)
140 to 142	C=CCN(CC=C)c1nc(NC(=O)Cc2cccs2)n2oc(=O)nc2n1
123 to 125	COC(C)CN(C)CC=CC(=O)Nc1cc2c(Nc3ccc(F)c(Cl)c3)ncnc2cc1OCC1CC1 (stereo unspecified)
259 to 260	CCCc1nc2sc3c(NCc4cccnc4)ncnc3c2c2c1COC(C)(C)C2
94 to 95	CN(C)Cc1ccc([C@H]2CC[C@H](OC(=O)c3ccc(Cl)cc3)CC2)cc1
203	O=C(NC1CCC(CCN2CCN(c3nccc4c3OCC4)CC2)CC1)C1CCCOC1 (racemic)
136	CSc1c(O[C@H]2CC[C@H](NCc3ccccc3)CC2)ccc2[nH]ncc12
241	O=C(O)c1cn(C2CC2)c2c(F)c(N3CCC(n4cc(-c5ccccc5)nn4)C3)c(F)cc2c1=O (stereo unspecified)
114 to 119	COc1ccc(-c2csc3nc(C)c(CCN4CCC(c5noc6cc(F)ccc56)CC4)c(=O)n23)cc1
> 285	CC(=O)NC1CCN(Cc2cnc3cc(NC(=O)c4ccc(-c5ccc(Cl)cc5)cc4)ccc3c2)C1 (stereo unspecified)
205 to 207	O=C(NCc1ccncc1)c1ccnc(N2CCN(Cc3ccc(F)cc3)C2=O)c1

melting point [°C]	SMILES
197 to 198	NC(=O)c1nnn(Cc2ccccc2C(F)(F)F)c1N
156 to 160	COC(=O)C(CC(C)C)NC(=O)c1ccc(NCc2ncc[nH]2)cc1-c1ccccc1 (stereo unspecified)
210 to 212	O=C(O)CCc1nc(C(=O)O)ccc1O
248	O=C(N[C@H]1CC[C@H](CCN2CCC(c3cccc4c3CCO4)CC2)CC1)c1ccc(N2CCCCC2)cc1
176 to 178	CCCCOc1ncc(C(C)=O)cc1-c1nc2c(CC)n(C3CN(C(=O)OC(C)(C)C)C3)nc2c(=O)[nH]1
210 to 212	O=S(=O)(CC1CC1)c1nc(-c2ccccn2)c(-c2ccccn2)[nH]1
60 to 63	CN(CCF)C1CN(c2ccc(N3C[C@H](CN=[N+]=[N-])OC3=O)cc2F)C1
86 to 88	CCOc1ccc(S(=O)(=O)N2CCN(CC)CC2)cc1C#N
175 to 177	CN1c2ccccc2N(C(=O)CN2CCCC2)c2ccccc2S1(=O)=O
200 to 201	O=S1(=O)NCN(C2CC2)c2cc(Br)cc(C(F)(F)F)c21
146 to 148	S=C(NCCN(Cc1ccc(Cl)c(Cl)c1)c1ccc(Br)cn1)Nc1ccc(N2CCCCC2)cc1
93 to 94	CON1CCC2(CC1)C(=O)C(Cl)(c1cc(C)c(C)cc1Cl)C(=O)N2C (stereo unspecified)
198 to 200	Cc1c(C)c2ccc(OCCCN3CCC(=NO)CC3)cc2oc1=O
229 to 230	NC(=O)c1ccc(Oc2nccc(-c3c(-c4ccc(F)cc4)ncn3C3CCNCC3)n2)cc1
194	Cc1c(-c2ccc(NC(=O)OC(C)(C)C)cc2)nc2n1CCc1ccccc1C2OC1CCN(C)CC1 (stereo unspecified)
130	CCN(CC)C(=O)CCc1nc(-c2ccccn2)nc2ccccc12
155 to 157	COCC1OC(n2cnc3c(NCc4cccc(I)c4)ncnc32)C(O)C1O (stereo unspecified)
